Measurements as given in patent US20250204541A1, “GAS PHASE TREATMENT OF PRODUCE” (priority 2022, published 2025).

Key:
Format in all cases: in vivo
mold = assay: Mold growth on produce exposed to AITC in an airtight bin (general description); settings: for effect on mold growth on the produce: AITC concentration of 1000 ppm, airtight bin
Description: The plurality of produce items is contacted with the antimicrobial agent for a length of time in a range of 1 minute to 100 hours (e.g., 10 minutes to 1 hour). The length of time is dependent on a variety of factors, such as type of produce, target pathogen, and the degree to which the enclosure is sealed. Examples include exposure times between 15 minutes and 96 hours for allyl isothiocyanate (AITC) in an airtight bin. […] Lower antimicrobial agent concentrations with longer exposure times or higher antimicrobial concentrations with shorter exposure times can also be used. For example, the plurality of produce items is contacted with the antimicrobial agent for a length of time in a range of 15 minute to 72 hours.
A concentration of the antimicrobial agent in the headspace of the enclosure is typically in a range of about 20 parts per million by volume (ppmv) to about 5000 ppmv (e.g., about 550 ppmv to about 4800 ppmv, or about 25 ppmv to about 1250 ppmv). Depending on type of produce and exposure time in the enclosure, antimicrobial agent concentrations greater than about 2200 ppmv can sometimes damage the produce. […] In some embodiments, the antimicrobial agent is provided in a concentration to the enclosure in a headspace at least about 1200 ppmv, at least about 1250 ppmv, or about 1250 ppmv to about 5000 ppmv, or about 1250 ppmv to about 4900 ppmv.

[1] = test system: Penicillium digitatum (Pd); assay: Antifungal activity of vapor against Penicillium digitatum in wounded, infected mandarins; settings: for effect on Pd infection: airtight container with fan, 18 hours, then 6 days; for infected: 125 μL, 30 minutes
[2] = test system: Colletotrichum gloeosporioides (Cg); assay: Antifungal activity of vapor against Colletotrichum gloeosporioides in avocados; settings: Example 22, 30 minutes vapor of 62.5-500 μL on filter paper disc, assessed on day 5
Botrytis cinerea (Bc) = assay: Antifungal activity of AITC vapor against Botrytis cinerea in strawberries; settings: for strawberries infected: Example 14, ambient temperature, day 6
Description: Example 13. The antifungal activity of AITC vapor against Bc in strawberries was tested. All samples were wounded by making a 3 mm deep puncture in the skin. Samples were infected by dispensing 1000 Bc spores suspended in 10 μL of water in the wound. Samples were then incubated at ambient temperature, imaged, and assessed for mold over the following 3 days. The test group consisted of strawberries that were: uninfected and untreated; infected and untreated; and exposed for 30 minutes to the vapor of 125 μL AITC dispensed on Whatman filter paper. […] The infection rates in the initially uninfected sample indicate that the step involving the initial infection of the wound by dispensing the Bc spores may not be necessary to promote infection in the test groups.
Example 14. The antifungal activity of a range of AITC vapor concentrations against Bc in strawberries was tested. Samples were treated by exposure for 30 minutes to the vapor of a range of volumes of AITC disposed on a filter paper disc, then incubated at ambient temperature, imaged, and assessed for mold over the following 6 days. Test groups consisted of strawberries that were untreated and strawberries exposed to the vapor of 62.5 μL, 125 μL, 250 μL, and 500 μL of AITC. […] On day 6, 83% of the untreated control strawberries were infected, 100% of the 62.5 μL AITC dose strawberries were infected, 13% of the 125 μL AITC dose strawberries were infected, and 0% of the 250 and 500 μL AITC dose strawberries were infected. For strawberries incubated at room temperature, all of the AITC doses above 62.5 μL were effective at preventing mold, with doses above 125 μL substantially eliminating mold.
Example 15. The antifungal activity of AITC vapor under different exposure conditions against Bc in strawberries was tested. Test groups consisted of strawberries that were untreated and treated by exposure for 30 minutes to the vapor of 125 μL of AITC disposed on a filter paper disc. Test groups were then incubated in either open or closed containers at 4° C., imaged, and assessed for mold over the following 14 days. […] All samples were free of mold through 7 days. On day 12, 16.7% of the open air controls were infected, 29.2% of closed container controls were infected, and 0% of the AITC treated were infected. On day 14, 33.3% of the open air controls were infected, 41.7% of closed container controls were infected, 0% of the open air AITC treated were infected, and 4.2% of the closed container AITC treated were infected. For strawberries incubated at 4° C., AITC treatment was effective in reducing the incidence of mold over a two week period. While ⅓ of the open air untreated samples were infected, none of the open air AITC-treated were infected. Over 40% of the closed container controls were infected. A single strawberry was infected in the closed container AITC-treated test group.
Example 16. The antifungal activity of AITC vapor against Bc in strawberries treated with a coating agent (95 wt % glyceryl monostearate and 5 wt % sodium stearate) and exposed to vapor in clamshells was tested. Test groups consisted of strawberries that were: untreated; dipped in 40 g/L solution of the coating agent; exposed for 30 minutes to the vapor of 125 μL of AITC disposed on a filter paper disc; and dipped in 40 g/L solution of the coating agent and exposed for 30 minutes to the vapor of 125 μL of AITC disposed on a filter paper disc. Samples were treated, incubated at ambient temperature, imaged, and assessed for mold over the following 4 days. […] On day 3, 52.8% of the controls were infected, 42.1% of the coating agent were infected, 26.3% of the AITC were infected, and 9.3% of the coating agent+AITC were infected. On day 4, 88.9% of the controls were infected, 76.3% of the coating agent were infected, 71% of the AITC were infected, and 34.9% of the coating agent+AITC were infected. […] Bowl dipping in the coating solution also presented challenges for drying around the calyx.
Example 17. […]

## C=CCN=C=S [AITC, allyl isothiocyanate]
mold; exposure time of 15 minutes
  effect on mold growth on the produce: slowed mold growth on the produce
mold; exposure time of 30 min or longer
  effect on mold growth on the produce: showed good efficacy
mold; AITC concentrations in a range of 550 ppmv to 4800 ppmv
  effect on mold growth: some inhibitory effect on mold growth
mold; AITC concentrations over 1000 ppmv
  effect on mold growth: tended to be completely inhibitory
[1]; 62.5 μL AITC vapor for 30 minutes, assessed after 6 days
  effect on Pd infection at 50% of the minimum inhibitory concentration: tends to reduce the severity of infection, but not eliminate the incidence of infection
[1]; 62.5 μL on filter paper disc
  effect on Pd infection: reduced the severity of infection relative to the untreated group
[1]; 125 μL on filter paper, airtight container, 2 hour exposure, assessed after 6 days
  effect on Pd mold: substantially eliminated the mold
[1]; 500 μL on filter paper disc
  effect on Pd infection: substantially prevented the growth mold
[1]; treated 24 hours after infection, assessed after 6 days
  infected: 8.3%
[1]; treated 48 hours after infection, assessed after 6 days
  infected: 25%
[1]; treated 72 hours after infection, assessed after 6 days
  infected: 16.7%
[1]; treated 96 hours after infection, assessed after 6 days
  infected: 81.6%
[1]; treated immediately after infection (0 hours), assessed after 6 days
  infected: 58.3%
[2]
  incidence of Cg mold: reduced the incidence of Cg mold compared to the untreated samples, the samples treated with coating agent, and the prochloraz treated sample
Botrytis cinerea (Bc); Example 13, strawberries, 30 minutes vapor of 125 μL, after 24 hours
  samples showing visible mold: no mold was visible
Botrytis cinerea (Bc); Example 13, strawberries, 30 minutes vapor of 125 μL, after 48 hours
  fraction of samples showing visible mold: ⅛
Botrytis cinerea (Bc); Example 13, strawberries, 30 minutes vapor of 125 μL, after 72 hours
  fraction of samples showing visible mold: ¼
Botrytis cinerea (Bc); 62.5 μL dose, 30 minutes
  strawberries infected: 100%
Botrytis cinerea (Bc); 125 μL dose, 30 minutes
  strawberries infected: 13%
Botrytis cinerea (Bc); 250 μL dose, 30 minutes
  strawberries infected: 0%
Botrytis cinerea (Bc); 500 μL dose, 30 minutes
  strawberries infected: 0%
Botrytis cinerea (Bc); Example 15, strawberries, 125 μL, 30 minutes, 4° C., closed container, day 14
  infected: 4.2%
Botrytis cinerea (Bc); Example 15, strawberries, 125 μL, 30 minutes, 4° C., open air, day 14
  infected: 0%
Botrytis cinerea (Bc); Example 15, strawberries, 125 μL, 30 minutes, 4° C., open or closed containers, day 12
  infected: 0%
Botrytis cinerea (Bc); Example 15, strawberries, 125 μL, 30 minutes, incubated at 4° C., through 7 days
  mold: free of mold
Botrytis cinerea (Bc); Example 16, strawberries in clamshells, coating agent 40 g/L dip, AITC 125 μL 30 minutes, ambient, day 3
  infected: 26.3%
Botrytis cinerea (Bc); Example 16, strawberries in clamshells, coating agent 40 g/L dip, AITC 125 μL 30 minutes, ambient, day 4
  infected: 71%
